In ChEMBL document CHEMBL1146244, “Stictic acid derivatives from the lichen Usnea articulata and their antioxidant activities” (J Nat Prod, 2007):

Key:
[1] = DPPH radical scavenging activity at 3000 uM; type: functional
[2] = Superoxide radical scavenging activity; type: functional

IC50 [2] [µM] | Compound | Activity [1] [%]
 | COc1cc(C)c2c(c1C=O)Oc1c(C=O)c(C(=O)O)c(O)c(C)c1OC2=O | 30
 | COc1cc(C)c2c(c1CO)Oc1c3c(c(O)c(C)c1OC2=O)C(=O)OC3 | 18
580 | Cc1cc(O)c(C=O)c2c1C(=O)Oc1c(COC(=O)/C=C/C(=O)O)c(O)c(C(=O)O)c(C)c1O2 [FUMARPROTOCETRARIC ACID] | 20
566 | Cc1cc(O)c(C=O)c2c1C(=O)Oc1c(C)c(O)c3c(c1O2)C(O)OC3=O (stereo not given) [NORSTICTIC ACID] | 
